Data published in PMC7041945, “Misfolded proteins bind and activate death receptor 5 to trigger apoptosis during unresolved endoplasmic reticulum stress” (eLife, 2020).

Legend:
[1] = system: DR5; experiment: GFP immunoprecipitation: DR5 (FADD, caspase 8) recovered with GFP-tagged protein, Western blot; type: cell-based, Homo sapiens; conditions: for fraction of DR5 IP'ed: GFP IP
Experimental: 15 cm dishes were seeded with 4 million HCT116 cells and allowed to recover for 18 hr prior to transfection. Samples were then transfected for 24 hr with the GFP-tagged ER trafficked protein, cytosolic GFP, or empty vector. To harvest apoptotic and living cells for each sample, all media and washes were collected. Cells were scraped in 2 ml of cold PBS and combined with the media and washes. Samples were centrifuged to pellet cells, washed with 1 ml cold PBS, and flash frozen in liquid N2 prior to lysis.
The cell pellets were resuspended in 750 μl of 30 mM HEPES pH 7.2, 150 mM NaCl, 1% Triton X-100 with 1x Roche protease inhibitor cocktail (if used subsequently for caspase glo 8 assay) or with 5x Roche protease inhibitor cocktail (if used for immunoblotting). The cells were lysed by mechanical shearing through a 25G needle for 13–15 plunges followed by incubation on ice for 30 min. The lysate was centrifuged at 2000xg for 5 min to remove debris and then incubated with 30 μl of GFP-Trap magnetic agarose beads (Chromotek gtma-20) for 4 hr at 4°C. The beads were then washed with 750 μl of lysis buffer for 10 min at 4°C for three rounds.
For Western blots, samples were eluted by adding 35 μl of non-reducing SDS gel loading buffer (50 mM Tris-HCl (pH 6.8), 2% SDS, 0.1% bromophenol blue, 10% glycerol) and incubated for 10 min at 70°C. The beads were then magnetically removed from the eluted sample before adding DTT to a final concentration of 25 mM. The entire sample was loaded onto the gel and immunoblotted for DR5, caspase 8, and GFP, in that order.

[2] = system: CHOP, BiP, and DR5 mRNA in HCT116 cells; experiment: qPCR of UPR target transcripts (CHOP, BiP, DR5); type: cell-based, Homo sapiens; conditions: for 2^-(deltaCq) CHOP / 2^-(deltaCq) DR5 total / Cq CHOP / Cq DR5 total / Cq(sample) - avg Cq(GAPDH), CHOP / Cq(sample) - avg Cq(GAPDH), DR5 total / avg. fold induction CHOP / avg. fold induction DR5 total / fold induction CHOP / fold induction DR5 total: Rep 2; for avg. fold induction CHOP / avg. fold induction DR5 total / fold induction CHOP / fold induction DR5 total: vs 24 hr cytoGFP (empty traffo)
Experimental: Cells were grown in 6-well plates and harvested with 0.5 ml of TRIzol reagent (Life Technologies) per manufacturer’s protocol to extract RNA. For cDNA synthesis, 500 ng of total RNA was reverse transcribed with 2 μl of the SuperScript VILO master mix (Life Technologies # 11755050) in a total reaction volume of 10 μl following the manufacturer’s protocol for reaction temperature and duration. The reverse transcription product was diluted to 200 μl with 10 mM Tris-HCl pH 8.2 and used at 1:100 dilution for subsequent RT-PCR reactions.
PCR samples were prepared as described by manufacturer’s protocols from iQ SYBR Green Supermix (BioRad #17088800).
For each experiment, qRT-PCR reactions were set up in triplicate and run using a CFX96 Real Time System (Bio-Rad). Quantitation cycles were determined with CFX Manager 3.0 software (Bio-Rad) and then normalized to GAPDH as an internal control.

[3] = 1000 ng plasmid, sheet Rep 1, mean of 3 replicates
[4] = Compiled Reps INS RHO, average of 6 reps

RHO-GFP: GFP-tagged rhodopsin expressed from plasmid
fraction of DR5 IP'ed ([1]; sheet 2018-04-13 rep 2): 0.05356
fraction of DR5 IP'ed ([1]; sheet 2018-09-20 rep 1): 0.05459
fraction IP'ed ([1]; Rep 1 (second series)): 0.05356
fraction IP'ed ([1]; Rep 2 (second series)): 0.05459
% IP'ed ([1]; average of all replicates): 5.408%
fraction IP'ed, average ([1]; average of all replicates): 0.05408
Mean ± SEM (fraction IP'ed) ([1]; unpaired t test sheet, GFP n=5, MPZ n=3, INS n=2, RHO n=2): 0.05408 ± 0.0005162, n=2
95% confidence interval (difference between means) ([1]; vs. GFP, fraction IP'ed): 0.01226 to 0.07547
Difference between means ([1]; vs. GFP, fraction IP'ed, ± SEM): 0.04386 ± 0.01229
2^-(deltaCq) for GFP norm to GAPDH, avg ([2]; 1000 ng plasmid, sheet Rep 1, mean): 55.6234
BiP avg fold induction relative to empty traffo [2, 3]: 1.525
CHOP avg fold induction relative to empty traffo [2, 3]: 2.086
DR5 total avg fold induction relative to empty traffo [2, 3]: 1.336
GAPDH avg fold induction relative to empty traffo [2, 3]: 1.003
2^-(deltaCq) CHOP ([2]; 3 hr, replicate 1): 0.04356
2^-(deltaCq) DR5 total ([2]; 3 hr, replicate 1): 0.02287
Cq CHOP ([2]; 3 hr, replicate 1): 24.2586
Cq DR5 total ([2]; 3 hr, replicate 1): 25.1882
Cq(sample) - avg Cq(GAPDH), CHOP ([2]; 3 hr, replicate 1): 4.521
Cq(sample) - avg Cq(GAPDH), DR5 total ([2]; 3 hr, replicate 1): 5.45
2^-(deltaCq) CHOP ([2]; 3 hr, replicate 2): 0.03694
2^-(deltaCq) DR5 total ([2]; 3 hr, replicate 2): 0.02336
Cq CHOP ([2]; 3 hr, replicate 2): 24.4965
Cq DR5 total ([2]; 3 hr, replicate 2): 25.1574
Cq(sample) - avg Cq(GAPDH), CHOP ([2]; 3 hr, replicate 2): 4.759
Cq(sample) - avg Cq(GAPDH), DR5 total ([2]; 3 hr, replicate 2): 5.42
2^-(deltaCq) CHOP ([2]; 3 hr, replicate 3): 0.03617
2^-(deltaCq) DR5 total ([2]; 3 hr, replicate 3): 0.01987
Cq CHOP ([2]; 3 hr, replicate 3): 24.5271
Cq DR5 total ([2]; 3 hr, replicate 3): 25.391
Cq(sample) - avg Cq(GAPDH), CHOP ([2]; 3 hr, replicate 3): 4.789
Cq(sample) - avg Cq(GAPDH), DR5 total ([2]; 3 hr, replicate 3): 5.653
avg. fold induction CHOP ([2]; 3 hr, mean of 3 replicates): 1.784
avg. fold induction DR5 total ([2]; 3 hr, mean of 3 replicates): 0.7693
fold induction CHOP ([2]; 3 hr, replicate 1): 1.9981
fold induction DR5 total ([2]; 3 hr, replicate 1): 0.7985
fold induction CHOP ([2]; 3 hr, replicate 2): 1.694
fold induction DR5 total ([2]; 3 hr, replicate 2): 0.8157
fold induction CHOP ([2]; 3 hr, replicate 3): 1.659
fold induction DR5 total ([2]; 3 hr, replicate 3): 0.6938
2^-(deltaCq) CHOP ([2]; 7 hr, replicate 1): 0.1012
2^-(deltaCq) DR5 total ([2]; 7 hr, replicate 1): 0.0421
Cq CHOP ([2]; 7 hr, replicate 1): 22.9621
Cq DR5 total ([2]; 7 hr, replicate 1): 24.2279
Cq(sample) - avg Cq(GAPDH), CHOP ([2]; 7 hr, replicate 1): 3.304
Cq(sample) - avg Cq(GAPDH), DR5 total ([2]; 7 hr, replicate 1): 4.57
2^-(deltaCq) CHOP ([2]; 7 hr, replicate 2): 0.09032
2^-(deltaCq) DR5 total ([2]; 7 hr, replicate 2): 0.04029
Cq CHOP ([2]; 7 hr, replicate 2): 23.1268
Cq DR5 total ([2]; 7 hr, replicate 2): 24.2914
Cq(sample) - avg Cq(GAPDH), CHOP ([2]; 7 hr, replicate 2): 3.4688
Cq(sample) - avg Cq(GAPDH), DR5 total ([2]; 7 hr, replicate 2): 4.633
2^-(deltaCq) CHOP ([2]; 7 hr, replicate 3): 0.09401
2^-(deltaCq) DR5 total ([2]; 7 hr, replicate 3): 0.03735
Cq CHOP ([2]; 7 hr, replicate 3): 23.069
Cq DR5 total ([2]; 7 hr, replicate 3): 24.4008
Cq(sample) - avg Cq(GAPDH), CHOP ([2]; 7 hr, replicate 3): 3.411
Cq(sample) - avg Cq(GAPDH), DR5 total ([2]; 7 hr, replicate 3): 4.743
avg. fold induction CHOP ([2]; 7 hr, mean of 3 replicates): 4.366
avg. fold induction DR5 total ([2]; 7 hr, mean of 3 replicates): 1.393
fold induction CHOP ([2]; 7 hr, replicate 1): 4.643
fold induction DR5 total ([2]; 7 hr, replicate 1): 1.47
fold induction CHOP ([2]; 7 hr, replicate 2): 4.143
fold induction DR5 total ([2]; 7 hr, replicate 2): 1.407
fold induction CHOP ([2]; 7 hr, replicate 3): 4.312
fold induction DR5 total ([2]; 7 hr, replicate 3): 1.304
2^-(deltaCq) CHOP ([2]; 24 hr, replicate 1): 0.04125
2^-(deltaCq) DR5 total ([2]; 24 hr, replicate 1): 0.04254
Cq CHOP ([2]; 24 hr, replicate 1): 23.6176
Cq DR5 total ([2]; 24 hr, replicate 1): 23.5731
Cq(sample) - avg Cq(GAPDH), CHOP ([2]; 24 hr, replicate 1): 4.6
Cq(sample) - avg Cq(GAPDH), DR5 total ([2]; 24 hr, replicate 1): 4.555
2^-(deltaCq) CHOP ([2]; 24 hr, replicate 2): 0.03991
2^-(deltaCq) DR5 total ([2]; 24 hr, replicate 2): 0.04129
Cq CHOP ([2]; 24 hr, replicate 2): 23.6651
Cq DR5 total ([2]; 24 hr, replicate 2): 23.6162
Cq(sample) - avg Cq(GAPDH), CHOP ([2]; 24 hr, replicate 2): 4.647
Cq(sample) - avg Cq(GAPDH), DR5 total ([2]; 24 hr, replicate 2): 4.598
2^-(deltaCq) CHOP ([2]; 24 hr, replicate 3): 0.039
2^-(deltaCq) DR5 total ([2]; 24 hr, replicate 3): 0.03658
Cq CHOP ([2]; 24 hr, replicate 3): 23.6985
Cq DR5 total ([2]; 24 hr, replicate 3): 23.7909
Cq(sample) - avg Cq(GAPDH), CHOP ([2]; 24 hr, replicate 3): 4.681
Cq(sample) - avg Cq(GAPDH), DR5 total ([2]; 24 hr, replicate 3): 4.773
avg. fold induction CHOP ([2]; 24 hr, mean of 3 replicates): 1.837
avg. fold induction DR5 total ([2]; 24 hr, mean of 3 replicates): 1.401
fold induction CHOP ([2]; 24 hr, replicate 1): 1.892
fold induction DR5 total ([2]; 24 hr, replicate 1): 1.485
fold induction CHOP ([2]; 24 hr, replicate 2): 1.831
fold induction DR5 total ([2]; 24 hr, replicate 2): 1.441
fold induction CHOP ([2]; 24 hr, replicate 3): 1.789
fold induction DR5 total ([2]; 24 hr, replicate 3): 1.277
BiP avg fold change relative to empty ([2]; Compiled Reps INS RHO, average of 3 reps): 1.525
CHOP avg fold change relative to empty [2, 4]: 1.961
DR5 avg fold change relative to empty [2, 4]: 1.368
GAPDH avg fold change relative to empty [2, 4]: 1.006
GFP construct avg fold change relative to empty [2, 4]: 63.7569
BiP fold change relative to empty ([2]; Compiled Reps INS RHO, rep 1): 1.759
CHOP fold change relative to empty ([2]; Compiled Reps INS RHO, rep 1): 2.318
DR5 fold change relative to empty ([2]; Compiled Reps INS RHO, rep 1): 1.2854
GAPDH fold change relative to empty ([2]; Compiled Reps INS RHO, rep 1): 0.9696
GFP construct fold change relative to empty ([2]; Compiled Reps INS RHO, rep 1): 45.8961
BiP fold change relative to empty ([2]; Compiled Reps INS RHO, rep 2): 1.438
CHOP fold change relative to empty ([2]; Compiled Reps INS RHO, rep 2): 1.9687
DR5 fold change relative to empty ([2]; Compiled Reps INS RHO, rep 2): 1.492
GAPDH fold change relative to empty ([2]; Compiled Reps INS RHO, rep 2): 1.117
GFP construct fold change relative to empty ([2]; Compiled Reps INS RHO, rep 2): 55.1085
BiP fold change relative to empty ([2]; Compiled Reps INS RHO, rep 3): 1.377
CHOP fold change relative to empty ([2]; Compiled Reps INS RHO, rep 3): 1.972
DR5 fold change relative to empty ([2]; Compiled Reps INS RHO, rep 3): 1.23
GAPDH fold change relative to empty ([2]; Compiled Reps INS RHO, rep 3): 0.9232
GFP construct fold change relative to empty ([2]; Compiled Reps INS RHO, rep 3): 65.8656
CHOP fold change relative to empty ([2]; Compiled Reps INS RHO, rep 4): 1.892
DR5 fold change relative to empty ([2]; Compiled Reps INS RHO, rep 4): 1.485
GAPDH fold change relative to empty ([2]; Compiled Reps INS RHO, rep 4): 0.8039
GFP construct fold change relative to empty ([2]; Compiled Reps INS RHO, rep 4): 62.5314
CHOP fold change relative to empty ([2]; Compiled Reps INS RHO, rep 5): 1.831
DR5 fold change relative to empty ([2]; Compiled Reps INS RHO, rep 5): 1.441
GAPDH fold change relative to empty ([2]; Compiled Reps INS RHO, rep 5): 1.063
GFP construct fold change relative to empty ([2]; Compiled Reps INS RHO, rep 5): 61.8163
CHOP fold change relative to empty ([2]; Compiled Reps INS RHO, rep 6): 1.789
DR5 fold change relative to empty ([2]; Compiled Reps INS RHO, rep 6): 1.277
GAPDH fold change relative to empty ([2]; Compiled Reps INS RHO, rep 6): 1.16
GFP construct fold change relative to empty ([2]; Compiled Reps INS RHO, rep 6): 91.3236
UPR target gene transcription ([2]; HCT116, transfected 24 hr): upregulated BiP and CHOP mRNAs
